Measured values as given in patent publication US9738660B2, “Selective inhibitors for protein kinases and pharmaceutical composition and use thereof” (National Chiao Tung University, priority 2014, dated 2017).
pIC50: −log10 of the molar value. Read-outs that look alike come from different tables or passages of the source.

What was measured:
[1] = target: T1, RPS6KB1 (Homo sapiens, UniProt P23443); assay: Kinase Profiler, residual kinase activity; assay type: biochemical; settings: read-out: percentage of the remaining kinase activity
T1 construct: purchased Research Biology Corp. (http://www.reactionbiology.com)

[2] = target: CAMK2D (Homo sapiens, UniProt Q13557); assay: Kinase Profiler, residual kinase activity; assay type: biochemical; settings: for remaining activity at 0.5 µM: read-out: percentage of the remaining kinase activity
Summary of the method: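 Outsourced panel screen: 40 protein kinases, residual activity reported per kinase.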

[3] = target: T2, MAPKAPK2 (Homo sapiens, UniProt P49137); assay: Kinase Profiler, residual kinase activity; assay type: biochemical; settings: read-out: percentage of the remaining kinase activity
T2 construct: purchased Research Biology Corp. (http://www.reactionbiology.com)

[4] = target: CDK2 (Homo sapiens, UniProt P24941); assay: Kinase Profiler, residual kinase activity; assay type: biochemical; settings: read-out: percentage of the remaining kinase activity
[5] = target: T3, PLK1 (Homo sapiens, UniProt P53350); assay: Kinase Profiler, residual kinase activity; assay type: biochemical; settings: read-out: percentage of the remaining kinase activity
T3 construct: purchased Research Biology Corp. (http://www.reactionbiology.com)

[6] = target: ABL1 (Homo sapiens, UniProt P00519); assay: Kinase Profiler, residual kinase activity; assay type: biochemical; settings: read-out: percentage of the remaining kinase activity
[7] = target: FGFR1 (Homo sapiens, UniProt P11362); assay: Kinase Profiler, residual kinase activity; assay type: biochemical; settings: read-out: percentage of the remaining kinase activity
[8] = target: CHEK2 (Homo sapiens, UniProt O96017); assay: Kinase Profiler, residual kinase activity; assay type: biochemical; settings: read-out: percentage of the remaining kinase activity
[9] = tested on: gastric cancer cell line MKN-45; assay: MTT cell survival test on gastric cancer cells; assay type: cell-based; settings: Homo sapiens; MKN-45, MTT, 24 hours, serum-free media; read-out: IC50 value for inhibiting gastric cancer cell line MKN-45
Procedure: Gastric cancer cell line MKN-45 was incubated on a 96-well plate (about 1×10^4 cells/well). After the cells adhered, the 96-well plate was replaced with serum-free culture media, and different concentrations (from 40 to 0.039 μM) of drugs were added. After incubating at 37° C. for 24 hours, PBS was used for washing three times, and MTT culture media was added to react with cells. Violet crystals appeared after two hours. Then, DMSO (50 μl) was added to terminate the reaction. A light-absorbing micro-volume spectrophotometer (ELISA reader) was used, and an absorption value of 570 nm was obtained. A blank value was deducted from each of the obtained absorbance values, and then the difference was divided by the value of the control group to calculate a percentage, i.e., a cell survival rate. The experiment was repeated three times to obtain an average value and a standard deviation.

[10] = tested on: 40 types of protein kinases; assay: Selectivity over the panel of 40 protein kinases; assay type: biochemical; settings: 500 nM; inhibited = residual kinase activity less than or equal to 50%
Description: Kinase Profiler services provided by […]. (http://www.reactionbiology.com) were used to analyze the data of the 9 type-S protein kinase inhibitors against the 40 types of protein kinases.

Chain of CAMK2D (Q13557 whole entry): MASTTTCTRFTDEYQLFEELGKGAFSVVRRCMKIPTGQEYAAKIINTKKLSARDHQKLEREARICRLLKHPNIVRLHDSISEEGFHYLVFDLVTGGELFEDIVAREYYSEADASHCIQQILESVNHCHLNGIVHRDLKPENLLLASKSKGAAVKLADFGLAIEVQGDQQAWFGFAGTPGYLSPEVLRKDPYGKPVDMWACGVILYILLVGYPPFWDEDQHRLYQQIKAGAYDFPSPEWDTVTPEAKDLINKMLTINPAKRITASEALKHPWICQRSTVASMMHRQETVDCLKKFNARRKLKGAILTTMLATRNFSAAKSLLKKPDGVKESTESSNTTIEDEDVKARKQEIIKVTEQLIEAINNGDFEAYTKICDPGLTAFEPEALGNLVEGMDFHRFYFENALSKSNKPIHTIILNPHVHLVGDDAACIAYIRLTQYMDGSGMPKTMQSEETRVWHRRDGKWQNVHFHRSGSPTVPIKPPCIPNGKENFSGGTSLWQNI
Chain of CHEK2 (O96017 whole entry): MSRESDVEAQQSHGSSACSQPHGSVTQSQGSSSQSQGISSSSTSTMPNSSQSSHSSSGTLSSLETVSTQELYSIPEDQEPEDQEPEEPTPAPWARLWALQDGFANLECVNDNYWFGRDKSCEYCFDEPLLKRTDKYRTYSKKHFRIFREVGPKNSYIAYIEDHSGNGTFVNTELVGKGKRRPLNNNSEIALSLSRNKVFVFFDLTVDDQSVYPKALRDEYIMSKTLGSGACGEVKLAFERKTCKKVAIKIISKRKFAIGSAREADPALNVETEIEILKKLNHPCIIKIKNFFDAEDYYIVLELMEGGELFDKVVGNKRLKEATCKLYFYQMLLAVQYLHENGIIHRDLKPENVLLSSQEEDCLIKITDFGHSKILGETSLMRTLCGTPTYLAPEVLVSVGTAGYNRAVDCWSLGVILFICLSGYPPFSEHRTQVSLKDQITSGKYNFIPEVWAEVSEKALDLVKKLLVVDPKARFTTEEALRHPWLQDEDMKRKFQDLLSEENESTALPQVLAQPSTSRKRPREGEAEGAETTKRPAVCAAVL
T1 sequence (P23443 whole entry): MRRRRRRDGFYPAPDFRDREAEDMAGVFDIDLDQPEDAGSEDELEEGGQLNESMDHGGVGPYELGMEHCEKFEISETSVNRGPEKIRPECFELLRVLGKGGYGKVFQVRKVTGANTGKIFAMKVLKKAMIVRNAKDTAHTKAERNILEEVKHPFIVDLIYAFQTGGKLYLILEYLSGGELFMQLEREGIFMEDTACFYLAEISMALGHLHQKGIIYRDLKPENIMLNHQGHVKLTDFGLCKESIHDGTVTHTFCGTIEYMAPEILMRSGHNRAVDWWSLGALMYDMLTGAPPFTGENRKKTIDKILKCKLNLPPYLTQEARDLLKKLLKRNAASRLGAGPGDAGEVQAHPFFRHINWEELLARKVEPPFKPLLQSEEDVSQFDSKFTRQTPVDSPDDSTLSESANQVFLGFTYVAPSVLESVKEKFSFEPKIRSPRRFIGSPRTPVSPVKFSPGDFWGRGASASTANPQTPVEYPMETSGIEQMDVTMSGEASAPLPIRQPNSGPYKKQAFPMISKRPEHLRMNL
Chain of FGFR1 (P11362 22-822): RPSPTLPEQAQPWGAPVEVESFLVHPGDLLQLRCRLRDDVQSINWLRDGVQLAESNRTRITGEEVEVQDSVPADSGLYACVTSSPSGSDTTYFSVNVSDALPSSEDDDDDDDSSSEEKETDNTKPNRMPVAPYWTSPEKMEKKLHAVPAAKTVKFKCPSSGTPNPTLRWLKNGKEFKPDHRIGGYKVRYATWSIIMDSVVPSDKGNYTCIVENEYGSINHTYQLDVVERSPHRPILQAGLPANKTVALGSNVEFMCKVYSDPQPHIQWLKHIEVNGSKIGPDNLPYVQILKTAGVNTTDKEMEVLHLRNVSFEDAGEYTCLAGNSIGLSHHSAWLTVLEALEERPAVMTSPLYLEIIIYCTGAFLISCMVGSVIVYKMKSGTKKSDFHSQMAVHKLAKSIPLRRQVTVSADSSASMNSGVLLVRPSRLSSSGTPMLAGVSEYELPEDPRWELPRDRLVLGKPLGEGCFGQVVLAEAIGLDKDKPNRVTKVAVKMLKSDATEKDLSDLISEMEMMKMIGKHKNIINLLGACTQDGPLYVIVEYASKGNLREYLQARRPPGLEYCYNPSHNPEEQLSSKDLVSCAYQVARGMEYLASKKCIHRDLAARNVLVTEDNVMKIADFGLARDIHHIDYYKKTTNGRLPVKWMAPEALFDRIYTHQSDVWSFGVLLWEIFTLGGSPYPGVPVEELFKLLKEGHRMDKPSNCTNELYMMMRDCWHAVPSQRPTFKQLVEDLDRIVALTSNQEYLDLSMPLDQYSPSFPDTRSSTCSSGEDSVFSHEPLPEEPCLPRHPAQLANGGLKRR
Chain of ABL1 (P00519 whole entry): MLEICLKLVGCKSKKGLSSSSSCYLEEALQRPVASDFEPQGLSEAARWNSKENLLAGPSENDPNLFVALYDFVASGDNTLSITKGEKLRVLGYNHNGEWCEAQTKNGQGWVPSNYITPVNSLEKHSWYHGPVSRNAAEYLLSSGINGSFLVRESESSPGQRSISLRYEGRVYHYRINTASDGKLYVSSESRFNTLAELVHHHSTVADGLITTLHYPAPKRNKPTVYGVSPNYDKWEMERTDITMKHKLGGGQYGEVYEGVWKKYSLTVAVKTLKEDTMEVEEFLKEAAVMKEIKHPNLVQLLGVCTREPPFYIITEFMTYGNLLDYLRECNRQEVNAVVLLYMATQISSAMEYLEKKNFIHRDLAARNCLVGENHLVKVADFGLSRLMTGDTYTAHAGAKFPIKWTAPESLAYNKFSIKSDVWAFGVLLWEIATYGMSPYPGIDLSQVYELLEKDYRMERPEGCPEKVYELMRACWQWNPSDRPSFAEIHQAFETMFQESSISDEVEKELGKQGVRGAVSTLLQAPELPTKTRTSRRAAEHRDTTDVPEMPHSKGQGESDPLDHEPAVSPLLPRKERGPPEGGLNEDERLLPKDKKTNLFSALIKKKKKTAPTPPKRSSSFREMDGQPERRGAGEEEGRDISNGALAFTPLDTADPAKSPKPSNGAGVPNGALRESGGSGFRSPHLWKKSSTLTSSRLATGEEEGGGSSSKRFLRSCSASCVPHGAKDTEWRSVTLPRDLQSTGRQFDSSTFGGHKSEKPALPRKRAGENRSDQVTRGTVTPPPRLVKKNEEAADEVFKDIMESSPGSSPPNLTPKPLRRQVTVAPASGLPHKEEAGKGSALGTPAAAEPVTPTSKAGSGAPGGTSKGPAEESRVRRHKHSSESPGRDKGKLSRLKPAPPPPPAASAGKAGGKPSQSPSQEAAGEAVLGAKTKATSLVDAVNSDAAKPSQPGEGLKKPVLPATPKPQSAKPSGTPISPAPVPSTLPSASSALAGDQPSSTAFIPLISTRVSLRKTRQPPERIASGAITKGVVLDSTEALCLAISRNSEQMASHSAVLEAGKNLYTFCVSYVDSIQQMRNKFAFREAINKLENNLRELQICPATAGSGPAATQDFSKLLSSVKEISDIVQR
T3 sequence (P53350 whole entry): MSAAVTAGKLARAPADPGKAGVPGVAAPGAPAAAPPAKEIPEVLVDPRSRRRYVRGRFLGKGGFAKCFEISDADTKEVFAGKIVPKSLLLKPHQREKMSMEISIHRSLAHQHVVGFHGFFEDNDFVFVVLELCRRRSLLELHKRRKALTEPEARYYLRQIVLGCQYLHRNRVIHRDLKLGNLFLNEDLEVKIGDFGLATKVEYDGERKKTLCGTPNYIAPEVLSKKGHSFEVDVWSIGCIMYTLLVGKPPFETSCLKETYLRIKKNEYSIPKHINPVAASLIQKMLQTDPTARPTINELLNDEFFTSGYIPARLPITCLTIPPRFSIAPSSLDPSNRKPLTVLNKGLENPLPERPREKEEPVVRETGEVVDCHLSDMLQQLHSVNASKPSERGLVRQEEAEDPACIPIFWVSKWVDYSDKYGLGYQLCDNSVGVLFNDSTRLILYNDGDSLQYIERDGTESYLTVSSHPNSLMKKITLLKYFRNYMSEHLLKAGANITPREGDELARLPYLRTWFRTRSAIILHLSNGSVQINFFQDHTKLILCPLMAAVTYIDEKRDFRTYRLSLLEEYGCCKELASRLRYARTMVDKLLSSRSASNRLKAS
T2 sequence (P49137 whole entry): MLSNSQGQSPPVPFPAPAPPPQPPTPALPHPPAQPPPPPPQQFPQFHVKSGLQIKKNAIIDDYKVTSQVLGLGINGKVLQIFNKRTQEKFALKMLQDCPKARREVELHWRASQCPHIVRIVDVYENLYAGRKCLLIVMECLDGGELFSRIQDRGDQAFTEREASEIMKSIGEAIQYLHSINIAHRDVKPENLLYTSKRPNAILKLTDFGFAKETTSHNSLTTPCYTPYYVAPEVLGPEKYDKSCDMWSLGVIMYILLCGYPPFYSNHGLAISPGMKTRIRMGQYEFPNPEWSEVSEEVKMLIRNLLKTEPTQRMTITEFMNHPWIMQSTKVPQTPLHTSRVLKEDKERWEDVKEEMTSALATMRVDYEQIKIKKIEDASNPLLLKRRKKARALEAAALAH

SMILES | remaining activity at 0.5 µM ([1]; RPS6KB1, inhibitor at 500 nM) | remaining activity at 0.5 µM ([2]; CAMK2D, inhibitor at 500 nM) | remaining activity at 0.5 µM ([3]; MAPKAPK2, inhibitor at 500 nM) | remaining activity at 0.5 µM ([4]; CDK2, inhibitor at 500 nM) | remaining activity at 0.5 µM ([5]; PLK1, inhibitor at 500 nM) | remaining activity at 0.5 µM ([6]; ABL1, inhibitor at 500 nM) | remaining activity at 0.5 µM ([7]; FGFR1, inhibitor at 500 nM) | remaining activity at 0.5 µM ([8]; CHEK2, inhibitor at 500 nM) | pIC50 ([2]; CAMK2D, inferred from test at 500 nM (FIG. 1)) | pIC50 [9] | number of types of protein kinases inhibited out of 40 tested [10] | percentage of the 40 types of protein kinases inhibited [10] | remaining activity at 0.5 µM [2] | remaining activity at 0.5 µM [1] | remaining activity at 0.5 µM [3] | remaining activity at 0.5 µM [4] | remaining activity at 0.5 µM [5] | remaining activity at 0.5 µM [6] | remaining activity at 0.5 µM [7] | remaining activity at 0.5 µM [8]
CN[C@@H]1C[C@H]2O[C@@](C)([C@@H]1OC)n1c3ccccc3c3c4c(c5c6ccccc6n2c5c31)C(=O)NC4 [STU, staurosporine, reference compound] | – | – | – | – | – | – | – | – | – | – | – | – | 0.4% | – | – | – | – | – | – | –
COC1C(N(C)CCOc2cccc([N+](=O)[O-])c2)CC2OC1(C)n1c3ccccc3c3c4c(c5c6ccccc6n2c5c31)C(=O)NC4 (stereo not shown) [Compound 8] | – | – | – | – | – | – | – | – | – | – | – | – | 0.3% | 11.8% | 94.6% | 12.3% | 97.7% | 92.5% | 30.1% | 46.7%
COC1C(N(C)C(=O)C(N)Cc2cn(C(=O)OC(C)(C)C)c3ccccc23)CC2OC1(C)n1c3ccccc3c3c4c(c5c6ccccc6n2c5c31)C(=O)NC4 (stereo not shown) [Compound 2] | 72.4% | 16.1% | 106% | 76.6% | 97.9% | 109% | 101% | 95.8% | > 6.30 | – | – | 2.5% | – | – | – | – | – | – | – | –
COC1C(N(C)C(=O)C(N)Cc2c[nH]cn2)CC2OC1(C)n1c3ccccc3c3c4c(c5c6ccccc6n2c5c31)C(=O)NC4 (stereo not shown) [Compound 1] | 7.9% | 2% | 73.3% | 16.5% | 93.8% | 77.6% | 5.1% | 30.3% | – | – | – | – | – | – | – | – | – | – | – | –

Further lines, with some results ahead:

remaining activity at 0.5 µM ([1]; RPS6KB1, inhibitor at 500 nM) | remaining activity at 0.5 µM ([2]; CAMK2D, inhibitor at 500 nM) | remaining activity at 0.5 µM ([3]; MAPKAPK2, inhibitor at 500 nM) | remaining activity at 0.5 µM ([4]; CDK2, inhibitor at 500 nM) | remaining activity at 0.5 µM ([5]; PLK1, inhibitor at 500 nM) | remaining activity at 0.5 µM ([6]; ABL1, inhibitor at 500 nM) | remaining activity at 0.5 µM ([7]; FGFR1, inhibitor at 500 nM) | remaining activity at 0.5 µM ([8]; CHEK2, inhibitor at 500 nM) | pIC50 ([2]; CAMK2D, inferred from test at 500 nM (FIG. 1)) | SMILES | pIC50 [9] | number of types of protein kinases inhibited out of 40 tested [10] | percentage of the 40 types of protein kinases inhibited [10] | remaining activity at 0.5 µM [2] | remaining activity at 0.5 µM [1] | remaining activity at 0.5 µM [3] | remaining activity at 0.5 µM [4] | remaining activity at 0.5 µM [5] | remaining activity at 0.5 µM [6] | remaining activity at 0.5 µM [7] | remaining activity at 0.5 µM [8]
11.1% | 1.1% | 92.5% | 8.2% | 95.9% | 84.9% | 25.7% | 37.7% | – | COC1C(N(C)Cc2ccc(-c3ccccc3)cc2)CC2OC1(C)n1c3ccccc3c3c4c(c5c6ccccc6n2c5c31)C(=O)NC4 (stereo not shown) [Compound 9] | – | – | – | – | – | – | – | – | – | – | –
15.2% | 6.7% | 108% | 57.5% | 104% | 107% | 53.3% | 80.4% | – | COC1C(N(C)C(=O)C(N)Cc2ccc(OC(C)(C)C)cc2)CC2OC1(C)n1c3ccccc3c3c4c(c5c6ccccc6n2c5c31)C(=O)NC4 (stereo not shown) [Compound 4] | 5.80 | 11 | 27.5% | – | – | – | – | – | – | – | –
15% | 12.7% | 105% | 55% | 104% | 97.6% | 29.5% | 82.7% | – | COC1C(N(C)C(=O)C(N)CCC(=O)OC(C)(C)C)CC2OC1(C)n1c3ccccc3c3c4c(c5c6ccccc6n2c5c31)C(=O)NC4 (stereo not shown) [Compound 6] | – | – | – | – | – | – | – | – | – | – | –
9.2% | 2.3% | 91.8% | 19.3% | 80.9% | 68% | 3.2% | 47.2% | – | COC1C(N(C)C(=O)C(N)CCC(=O)O)CC2OC1(C)n1c3ccccc3c3c4c(c5c6ccccc6n2c5c31)C(=O)NC4 (stereo not shown) [Compound 7] | – | – | – | – | – | – | – | – | – | – | –
11.8% | 10.1% | 95.3% | 56.9% | 99.2% | 104% | 16.6% | 73.2% | – | COC1C(N(C)C(=O)C(N)Cc2ccc(O)cc2)CC2OC1(C)n1c3ccccc3c3c4c(c5c6ccccc6n2c5c31)C(=O)NC4 (stereo not shown) [Compound 5] | – | – | – | – | – | – | – | – | – | – | –
